# According to patent publication US9278996B2, “Dolastatin-10 derivative, method of producing the same and anticancer drug composition containing the same” (CELLTRION, INC., priority 2012, dated 2016):
# Tested on: breast cancer (BT-474)
# Assay: Anticancer activity assay (WST-8 cell growth), BT-474
# Type: cell-based
# Conditions: Homo sapiens, BT-474, 96 h, read-out: IC50 (nM) BT-474
# Description: The compounds of the present invention were assayed for inhibitory activity against 7 cancer cell lines as breast cancer (BT-474), human epithelial cancer (A-431), non-small cell lung cancer (NCI-H460), colon cancer (HT-29), colon cancer (SW-620), breast cancer (MDA-MB-231) and breast cancer (MCF-7).
# Briefly, a suspension of each cancer cell line was serially diluted, and plated at a density of 2˜3×10^3 cells/well into 96-well microplates, followed by incubation at 37° C. for 4 day in a 5% CO2 atmosphere. Cell growth in a monolayer was measured using WST-8 reagemt (Dojindo, Japan).
# IC50 values of the compounds against the cancer cell lines were calculated as compound concentrations at which the cells were grown by 50% OD of the control.
row,Structure (SMILES),IC50 [nM]
1,"CC[C@H](C)[C@@H]([C@@H](CC(=O)N1C[C@H](OC)C[C@H]1[C@H](OC)[C@@H](C)C(=O)N[C@H](C)C(N)c1ccccc1)OC)N(C)C(=O)[C@@H](NC(=O)[C@H](C(C)C)N(C)C)C(C)C (mixture of isomers) [Compound I-36, (2S)—N-((3R,4S)-1-((2S)-2-((1R,2R)-3-(((2R)-1-amino-1-phenylpropan-2-yl)amino)-1-methoxy-2-methyl-3-oxopropyl)-4-methoxypyrrolidin-1-yl)-3-methoxy-5-methyl-1-oxoheptan-4-yl)-2-((S)-2-(dimethylamino)-3-methylbutaneamido)-N,3-dimethylbutanamide]",0.51
2,"CC[C@H](C)[C@@H]([C@@H](CC(=O)N1C[C@H](OC)C[C@H]1[C@H](OC)[C@@H](C)C(=O)N[C@@H](C)C(N)c1ccccc1)OC)N(C)C(=O)[C@@H](NC(=O)[C@H](C(C)C)N(C)C)C(C)C (mixture of isomers) [Compound I-37, (2S)—N-((3R,4S)-1-((2S,4R)-2-((1R,2R)-3-(((2S)-1-amino-1-phenylpropan-2-yl)amino)-1-methoxy-2-methyl-3-oxopropyl)-4-methoxypyrrolidin-1-yl)-3-methoxy-5-methyl-1-oxoheptan-4-yl)-2-((S)-2-(dimethylamino)-3-methylbutaneamido)-N,3-dimethylbutanamide]",2.82
3,"CC[C@H](C)[C@@H]([C@@H](CC(=O)N1C[C@H](OC)C[C@H]1[C@H](OC)[C@@H](C)C(=O)N[C@H](C)C(=O)c1ccccc1)OC)N(C)C(=O)[C@@H](NC(=O)[C@@H](NC)C(C)C)C(C)C (stereo in doubt) [Compound I-6, (2 S)—N-((3R,4S)-3-methoxy-1-((2R,4R)-4-methoxy-2-((1R,2R)-1-methoxy-2-methyl-3-oxo-3-(((R)-1-oxo-1-phenylpropan-2-yl)amino)propyl)pyrrolidin-1-yl)-5-methyl-1-oxoheptan-4-yl)-N,3-dimethyl-2-((S)-3-methyl-2-(methylamino)butaneamido)butanamide]",0.32
4,"CC[C@H](C)[C@@H]([C@@H](CC(=O)N1C[C@H](OC)C[C@@H]1[C@H](OC)[C@@H](C)C(=O)NCCc1c(F)cccc1F)OC)N(C)C(=O)[C@@H](NC(=O)[C@@H](NC)C(C)C)C(C)C [Compound I-1, (S)—N-((3R,4S,5S)-1-((2R,4R)-2-((1R,2R)-3-((2,6-difluorophenethyl)amino)-1-methoxy-2-methyl-3-oxopropyl)-4-methoxypyrrolidin-1-yl)-3-methoxy-5-methyl-1-oxoheptan-4-yl)-N,3-dimethyl-2-((S)-3-methyl-2-(methylamino)butaneamido)butanamide]",0.12
5,CC[C@H](C)[C@@H]([C@@H](CC(=O)N1C[C@H](OC)CC1[C@H](OC)[C@@H](C)C(=O)NCCc1cccc(F)c1)OC)N(C)C(=O)[C@@H](NC(=O)[C@@H](NC)C(C)C)C(C)C (stereo partly drawn) [Compound I-2],0.7
6,"CC[C@H](C)[C@@H]([C@@H](CC(=O)N1C[C@H](OC)C[C@H]1[C@H](OC)[C@@H](C)C(=O)N[C@@H](C)C(=O)c1ccccc1)OC)N(C)C(=O)[C@@H](NC(=O)[C@@H](NC)C(C)C)C(C)C [Compound I-7, (2 S)—N-((3R,4S)-3-methoxy-1-((2S,4R)-4-methoxy-2-((1R,2R)-1-methoxy-2-methyl-3-oxo-3-(((S)-1-oxo-1-phenylpropan-2-yl)amino)propyl)pyrrolidin-1-yl)-5-methyl-1-oxoheptan-4-yl)-N,3-dimethyl-2-((S)-3-methyl-2-(methylamino)butaneamido)butanamide]",0.62
7,"CC[C@H](C)[C@@H]([C@@H](CC(=O)N1C[C@@H](OC)C[C@@H]1[C@H](OC)[C@@H](C)C(=O)NCCc1ccccc1)OC)N(C)C(=O)[C@@H](NC(=O)[C@H](C(C)C)N(C)C)C(C)C [Compound I-10, (S)-2-((S)-2-(dimethylamino)-3-methylbutaneamido)-N-((3R,4S,5S)-3-methoxy-1-((2R,4S)-4-methoxy-2-((1R,2R)-1-methoxy-2-methyl-3-oxo-3-(phenethylamino)propyl)pyrrolidin-1-yl)-5-methyl-1-oxoheptan-4-yl)-N,3-dimethylbutanamide]",0.24
8,"CC[C@H](C)[C@@H]([C@@H](CC(=O)N1C[C@H](OC)C[C@@H]1[C@H](OC)[C@@H](C)C(=O)N[C@H](C)C(=O)c1ccc(F)cc1)OC)N(C)C(=O)[C@@H](NC(=O)[C@@H](NC)C(C)C)C(C)C [Compound I-11, (S)—N-((3R,4S,5 S)-1-((2R,4R)-2-((1R,2R)-3-(((R)-1-(4-fluorophenyl)-1-oxopropan-2-yl)amino)-1-methoxy-2-methyl-3-oxopropyl)-4-methoxypyrrolidin-1-yl)-3-methoxy-5-methyl-1-oxoheptan-4-yl)-N,3-dimethyl-2-((S)-3-methyl-2-(methylamino)butaneamido)butanamide]",0.78
9,"CC[C@H](C)[C@@H]([C@@H](CC(=O)N1C[C@H](OC)C[C@@H]1[C@H](OC)[C@@H](C)C(=O)N[C@H](C)C(=O)c1cccc(OC)c1)OC)N(C)C(=O)[C@@H](NC(=O)[C@@H](NC)C(C)C)C(C)C [Compound I-14, (S)—N-((3R,4S,5S)-3-methoxy-1-((2R,4R)-4-methoxy-2-((1R,2R)-1-methoxy-3-(((R)-1-(3-methoxyphenyl)-1-oxopropan-2-yl)amino)-2-methyl-3-oxopropyl)pyrrolidin-1-yl)-5-methyl-1-oxoheptan-4-yl)-N,3-dimethyl-2-((S)-3-methyl-2-(methylamino)butaneamido)butanamide]",0.29
10,"CC[C@H](C)[C@@H]([C@@H](CC(=O)N1C[C@H](OC)C[C@@H]1[C@H](OC)[C@@H](C)C(=O)N[C@H](C)C(=O)c1ccc(OC)cc1)OC)N(C)C(=O)[C@@H](NC(=O)[C@@H](NC)C(C)C)C(C)C [Compound I-15, (S)—N-((3R,4S,5S)-3-methoxy-1-((2R,4R)-4-methoxy-2-((1R,2R)-1-methoxy-3-(((R)-1-(4-methoxyphenyl)-1-oxopropan-2-yl)amino)-2-methyl-3-oxopropyl)pyrrolidin-1-yl)-5-methyl-1-oxoheptan-4-yl)-N,3-dimethyl-2-((S)-3-methyl-2-(methylamino)butaneamido)butanamide]",0.51
11,"CC[C@H](C)[C@@H]([C@@H](CC(=O)N1C[C@H](OC)C[C@@H]1[C@H](OC)[C@@H](C)C(=O)N[C@@H](C)C(=O)c1cc(F)cc(F)c1)OC)N(C)C(=O)[C@@H](NC(=O)[C@@H](NC)C(C)C)C(C)C [Compound I-16, (S)—N-((3R,4S,5S)-1-((2R,4R)-2-((1R,2R)-3-(((S)-1-(3,5-difluorophenyl)-1-oxopropan-2-yl)amino)-1-methoxy-2-methyl-3-oxopropyl)-4-methoxypyrrolidin-1-yl)-3-methoxy-5-methyl-1-oxoheptan-4-yl)-N,3-dimethyl-2-((S)-3-methyl-2-(methylamino)butaneamido)butanamide]",0.65
12,"CC[C@H](C)[C@@H]([C@@H](CC(=O)N1C[C@H](OC)C[C@@H]1[C@H](OC)[C@@H](C)C(=O)N[C@@H](C)C(=O)c1c(F)cccc1F)OC)N(C)C(=O)[C@@H](NC(=O)[C@@H](NC)C(C)C)C(C)C [Compound I-17, (S)—N-((3R,4S,5S)-1-((2R,4R)-2-((1R,2R)-3-(((S)-1-(2,6-difluorophenyl)-1-oxopropan-2-yl)amino)-1-methoxy-2-methyl-3-oxopropyl)-4-methoxypyrrolidin-1-yl)-3-methoxy-5-methyl-1-oxoheptan-4-yl)-N,3-dimethyl-2-((S)-3-methyl-2-(methylamino)butaneamido)butanamide]",0.25
13,"CC[C@H](C)[C@@H]([C@@H](CC(=O)N1C[C@H](OC)C[C@@H]1[C@H](OC)[C@@H](C)C(=O)N[C@H](C)C(=O)c1c(F)cccc1F)OC)N(C)C(=O)[C@@H](NC(=O)[C@@H](NC)C(C)C)C(C)C [Compound I-18, (S)—N-((3R,4S,5S)-1-((2R,4R)-2-((1R,2R)-3-(((R)-1-(2,6-difluorophenyl)-1-oxopropan-2-yl)amino)-1-methoxy-2-methyl-3-oxopropyl)-4-methoxypyrrolidin-1-yl)-3-methoxy-5-methyl-1-oxoheptan-4-yl)-N,3-dimethyl-2-((S)-3-methyl-2-(methylamino)butaneamido)butanamide]",0.88
14,"CC[C@H](C)[C@@H]([C@@H](CC(=O)N1C[C@H](OC)C[C@@H]1[C@H](OC)[C@@H](C)C(=O)N[C@H](C)/C(=N\O)c1cccc(OC)c1)OC)N(C)C(=O)[C@@H](NC(=O)[C@@H](NC)C(C)C)C(C)C [Compound I-19, (S)—N-((3R,4S,5 S)-1-((2R,4R)-2-((1R,2R)-3-(((R,Z)-1-(hydroxyimino)-1-(3-methoxyphenyl)propan-2-yl)amino)-1-methoxy-2-methyl-3-oxopropyl)-4-methoxypyrrolidin-1-yl)-3-methoxy-5-methyl-1-oxoheptan-4-yl)-N,3-dimethyl-2-((S)-3-methyl-2-(methylamino)butaneamido)butanamide]",0.09
15,"CC[C@H](C)[C@@H]([C@@H](CC(=O)N1C[C@H](OC)C[C@@H]1[C@H](OC)[C@@H](C)C(=O)N[C@H](C)C(=NO)c1cccc(OC)c1)OC)N(C)C(=O)[C@@H](NC(=O)[C@H](C(C)C)N(C)C)C(C)C [Compound I-20, (S)-2-((S)-2-(dimethylamino)-3-methylbutaneamido)-N-((3R,4S,5S)-1-((2R,4R)-2-((1R,2R)-3-(((R)-1-(hydroxyimino)-1-(3-methoxyphenyl)propan-2-yl)amino)-1-methoxy-2-methyl-3-oxopropyl)-4-methoxypyrrolidin-1-yl)-3-methoxy-5-methyl-1-oxoheptan-4-yl)-N,3-dimethylbutanamide]",0.47
